Measurements published in ChEMBL document CHEMBL4251541, “Microwave-enhanced Friedländer synthesis for the rapid assembly of halogenated quinolines with antibacterial and biofilm eradication activities against drug resistant and tolerant bacteria” (Medchemcomm, 2017).
In brackets after ≈: the same amount, converted by molar mass.

Experiments:
Enterococcus faecium [1] = assay: Antibiofilm activity against vancomycin-resistant Enterococcus faecium ATCC 700221 after 24 hrs by calgary biofilm device-based assay; format: functional
Staphylococcus aureus [2] = assay: Antibiofilm activity against methicillin-resistant Staphylococcus aureus isolate 2 after 24 hrs by calgary biofilm device-based assay; format: functional
[3] = tested on: Staphylococcus epidermidis; assay: Antibacterial activity against methicillin-resistant Staphylococcus epidermidis ATCC 35984 after 16 to 18 hrs by broth microdilution method; format: functional
Staphylococcus aureus [4] = assay: Bactericidal activity against methicillin-resistant Staphylococcus aureus isolate 2 after 24 hrs by calgary biofilm device-based assay; format: functional; conditions: isolate 2, 24 h
[5] = tested on: Staphylococcus epidermidis; assay: Antibiofilm activity against methicillin-resistant Staphylococcus epidermidis ATCC 35984 after 24 hrs by calgary biofilm device-based assay; format: functional
Staphylococcus aureus [6] = assay: Antibacterial activity against methicillin-resistant Staphylococcus aureus isolate 2 after 16 to 18 hrs by broth microdilution method; format: functional
Enterococcus faecium [7] = assay: Bactericidal activity against vancomycin-resistant Enterococcus faecium ATCC 700221 after 24 hrs by calgary biofilm device-based assay; format: functional; conditions: ATCC 700221, 24 h
Enterococcus faecium [8] = assay: Antibacterial activity against vancomycin-resistant Enterococcus faecium ATCC 700221 after 16 to 18 hrs by broth microdilution method; format: functional
[9] = Hemolytic activity in human RBC at 200 uM after 1 hr relative to control; format: ADME, cell-based, Erythrocyte; conditions: red blood cells (erythrocytes), read-out: Activity
[10] = tested on: Staphylococcus epidermidis; assay: Bactericidal activity against methicillin-resistant Staphylococcus epidermidis ATCC 35984 after 24 hrs by calgary biofilm device-based assay; format: functional; conditions: ATCC 35984, 24 h
Staphylococcus aureus [11] = assay: Bactericidal activity against methicillin-resistant Staphylococcus aureus BAA 1707 after 24 hrs by calgary biofilm device-based assay; format: functional; conditions: BAA 1707, 24 h
Staphylococcus aureus [12] = assay: Antibiofilm activity against methicillin-resistant Staphylococcus aureus BAA 1707 after 24 hrs by calgary biofilm device-based assay; format: functional

SMILES	MBEC (Enterococcus faecium [1]) [µM]	MBEC (Staphylococcus aureus [2]) [µM]	MIC [3] [µM]	MBC (Staphylococcus aureus [4]) [µM]	MBEC [5] [µM]	MIC (Staphylococcus aureus [6]) [µM]	MBC (Enterococcus faecium [7]) [µM]	MIC (Enterococcus faecium [8]) [µM]	hemolysis at 1 h, 200 µM [9] [%]	MBC [10] [µM]	MBC (Staphylococcus aureus [11]) [µM]	MBEC (Staphylococcus aureus [12]) [µM]
CCCCCCCCCCCC[N+](C)(C)CC[N+](C)(C)CC[N+](C)(C)CCCCCCCCCCCC	3	125	2.35	31.3	31.3	3.13	3	2.35	> 99	31.3		
CC(=O)c1cc2c(Br)cc(Br)c(O)c2nc1C		>1000	6.25 (≈ 2.24 µg/mL)	250 (≈ 89.8 µg/mL)		1.56 (≈ 0.56 µg/mL)		25 (≈ 8.98 µg/mL)	2.3			
Cc1nc2c(O)c(Br)cc(Br)c2cc1C(=O)O/C(=N\C1CCCCC1)NC1CCCCC1			1.56 (≈ 0.885 µg/mL)			12.5 (≈ 7.09 µg/mL)		25 (≈ 14.2 µg/mL)	≤ 1			
Cc1nc2c(O)c(Br)cc(Br)c2cc1C(=O)N1CCOCC1			50 (≈ 21.5 µg/mL)			100 (≈ 43 µg/mL)		> 100	≤ 1			
Cc1nc2c(O)c(Br)cc(Br)c2cc1C(=O)c1ccccc1	23.5	23.5	3.13 (≈ 1.32 µg/mL)	15.6 (≈ 6.57 µg/mL)	1	0.59 (≈ 0.248 µg/mL)	46.9 (≈ 19.7 µg/mL)	0.78 (≈ 0.328 µg/mL)	2.5	5.9 (≈ 2.48 µg/mL)	7.8 (≈ 3.28 µg/mL)	3.9
Oc1c(Br)cc(Br)c2ccc(-c3ccccc3)nc12						25 (≈ 9.48 µg/mL)		> 100	1.9			
COC(=O)c1cc2c(Br)cc(Br)c(O)c2nc1C			0.3 (≈ 0.113 µg/mL)			1.56 (≈ 0.585 µg/mL)		2.35 (≈ 0.881 µg/mL)	1.5			
CCCNC(=O)c1cc2c(Br)cc(Br)c(O)c2nc1C			12.5 (≈ 5.03 µg/mL)			37.5 (≈ 15.1 µg/mL)		50 (≈ 20.1 µg/mL)	7			
Cc1cnc2c(O)c(Br)cc(Br)c2c1	5.9	46.9	1.17 (≈ 0.371 µg/mL)	15.6 (≈ 4.94 µg/mL)	31.3	3.13 (≈ 0.992 µg/mL)	7.8 (≈ 2.47 µg/mL)		≤ 1	23.5 (≈ 7.45 µg/mL)		
CCOC(=O)c1c(C)nc2c(O)c(Br)cc(Br)c2c1C			1.17 (≈ 0.472 µg/mL)			6.25 (≈ 2.52 µg/mL)		4.69 (≈ 1.89 µg/mL)	≤ 1			
Oc1c(Br)cc(Br)c2cc(Cc3ccccc3)cnc12			3.13 (≈ 1.23 µg/mL)			50 (≈ 19.7 µg/mL)		18.8 (≈ 7.39 µg/mL)	4.6			
Cc1nc2c(O)c(Br)cc(Br)c2cc1C(=O)OCc1ccccc1	1.5	>1000	0.1 (≈ 0.0451 µg/mL)	375 (≈ 169 µg/mL)	15.6	6.25 (≈ 2.82 µg/mL)	3.9 (≈ 1.76 µg/mL)	0.3 (≈ 0.135 µg/mL)	7.9	46.9 (≈ 21.2 µg/mL)		
Oc1c(Br)cc(Br)c2ccc(-c3ccccn3)nc12						37.5 (≈ 14.3 µg/mL)		25 (≈ 9.5 µg/mL)	≤ 1			
Cc1nc2c(O)c(Br)cc(Br)c2cc1C(=O)O			25 (≈ 9.02 µg/mL)			50 (≈ 18 µg/mL)		> 100	2.5			
CCOC(=O)c1cc2c(Br)cc(Br)c(O)c2nc1C	2	31.3	0.1 (≈ 0.0389 µg/mL)	31.3 (≈ 12.2 µg/mL)	23.5	0.39 (≈ 0.152 µg/mL)	3 (≈ 1.17 µg/mL)	0.78 (≈ 0.303 µg/mL)	2.2	93.8 (≈ 36.5 µg/mL)		
CCc1cnc2c(O)c(Br)cc(Br)c2c1	23.5	188	0.59 (≈ 0.195 µg/mL)	46.9 (≈ 15.5 µg/mL)	46.9	6.25 (≈ 2.07 µg/mL)	31.3 (≈ 10.4 µg/mL)	12.5 (≈ 4.14 µg/mL)	2.4	62.5 (≈ 20.7 µg/mL)		
CCc1nc2c(O)c(Br)cc(Br)c2cc1C		>1000	0.15 (≈ 0.0518 µg/mL)	> 1000		6.25 (≈ 2.16 µg/mL)		0.78 (≈ 0.269 µg/mL)	≤ 1			
Cc1nc2c(O)c(Br)cc(Br)c2cc1C(=O)NCc1ccccc1		>1000	6.25 (≈ 2.81 µg/mL)	> 2000		6.25 (≈ 2.81 µg/mL)		25 (≈ 11.3 µg/mL)	13			
Cc1ccc2c(Br)cc(Br)c(O)c2n1 [BROQUINALDOL]	2	46.9	0.2 (≈ 0.0634 µg/mL)	23.5 (≈ 7.45 µg/mL)	3		3 (≈ 0.951 µg/mL)	2.35 (≈ 0.745 µg/mL)	≤ 1	7.8 (≈ 2.47 µg/mL)	31.3 (≈ 9.92 µg/mL)	31.3
CCCCCCCCCC(=O)N[C@@H](Cc1c[nH]c2ccccc12)C(=O)N[C@@H](CC(N)=O)C(=O)N[C@@H](CC(=O)O)C(=O)N[C@@H]1C(=O)NCC(=O)N[C@@H](CCCN)C(=O)N[C@@H](CC(=O)O)C(=O)N[C@H](C)C(=O)N[C@@H](CC(=O)O)C(=O)NCC(=O)N[C@H](CO)C(=O)N[C@@H]([C@H](C)CC(=O)O)C(=O)N[C@@H](CC(=O)c2ccccc2N)C(=O)O[C@@H]1C [DAPTOMYCIN]		>2000	12.5 (≈ 20.3 µg/mL)	62.5 (≈ 101 µg/mL)								
CC(=O)NC[C@H]1CN(c2ccc(N3CCOCC3)c(F)c2)C(=O)O1 [LINEZOLID]		>2000	3.13 (≈ 1.06 µg/mL)			3.13 (≈ 1.06 µg/mL)		3.13 (≈ 1.06 µg/mL)	≤ 1			
CN[C@H](CC(C)C)C(=O)N[C@H]1C(=O)N[C@@H](CC(N)=O)C(=O)N[C@H]2C(=O)N[C@H]3C(=O)N[C@H](C(=O)N[C@H](C(=O)O)c4cc(O)cc(O)c4-c4cc3ccc4O)[C@H](O)c3ccc(c(Cl)c3)Oc3cc2cc(c3O[C@@H]2O[C@H](CO)[C@@H](O)[C@H](O)[C@H]2O[C@H]2C[C@](C)(N)[C@H](O)[C@H](C)O2)Oc2ccc(cc2Cl)[C@H]1O [VANCOMYCIN]	200	>2000		3 (≈ 4.35 µg/mL)	>2000		> 200	> 100	≤ 1		3.9 (≈ 5.65 µg/mL)	>2000
